The structures appear in SMILES notation. pKi: −log10 of the molar value.

For this experiment, the target named is Carbonic anhydrase 9 (Homo sapiens, UniProt Q16790).

Broadly, the pKi is the Ki on a negative log10 scale, so that one unit is a factor of ten. A high value points to a low Ki. For the compound `NS(=O)(=O)c1ccc(-n2cc(CS[C@@H]3O[C@H](CO)[C@@H](O)[C@H](O)[C@H]3O)nn2)cc1`, the pKi is 6.59. In turn, `CC(=O)OC[C@H]1O[C@@H](SCc2cn(-c3ccc(S(N)(=O)=O)cc3)nn2)[C@H](OC(C)=O)[C@@H](OC(C)=O)[C@@H]1OC(C)=O` gave a pKi of 8.07. Compound `NS(=O)(=O)c1ccc(-n2cc(C[S+]([O-])[C@@H]3O[C@H](CO)[C@@H](O)[C@H](O)[C@H]3O)nn2)cc1` (stereo not given in full) had a pKi of 8.01. Turning to `NS(=O)(=O)c1ccc(-n2cc(C[S+]([O-])[C@@H]3O[C@H](CO)[C@H](O)[C@H](O)[C@H]3O)nn2)cc1` (stereo not given in full), the pKi is 8.10. Compound `NS(=O)(=O)c1ccc(-n2cc(CS[C@@H]3O[C@H](CO)[C@H](O)[C@H](O)[C@H]3O)nn2)cc1` gave a negative logarithm of the Ki (pKi) of 8.21.

In turn, `NS(=O)(=O)c1ccc(-n2cc(CS(=O)(=O)[C@@H]3O[C@H](CO)[C@@H](O)[C@H](O)[C@H]3O)nn2)cc1` gave a pKi of 8.02.

In turn, `CC(=O)OC[C@H]1O[C@@H](SCc2cn(-c3ccc(S(N)(=O)=O)cc3)nn2)[C@H](OC(C)=O)[C@@H](OC(C)=O)[C@H]1OC(C)=O` gave a pKi of 8.07. The result for `CC(=O)OC[C@H]1O[C@@H](S(=O)(=O)Cc2cn(-c3ccc(S(N)(=O)=O)cc3)nn2)[C@H](OC(C)=O)[C@@H](OC(C)=O)[C@@H]1OC(C)=O` reads 8.03; that for `CC(=O)OC[C@H]1O[C@@H](S(=O)(=O)Cc2cn(-c3ccc(S(N)(=O)=O)cc3)nn2)[C@H](OC(C)=O)[C@@H](OC(C)=O)[C@H]1OC(C)=O`, 8.12. The compound `NS(=O)(=O)c1ccc(-n2cc(CS(=O)(=O)[C@@H]3O[C@H](CO)[C@H](O)[C@H](O)[C@H]3O)nn2)cc1` gave a pKi of 8.09.
